According to patent EP3628659A1, “SELENOESTER-CONTAINING COMPOUNDS FOR USE IN THE TREATMENT OF MICROBIAL INFECTIONS OR COLORECTAL CANCER” (Consejo Superior De Investigaciones Científicas, priority 2018, dated 2020):
Read-outs that look alike come from different tables or passages of the source.

Experiments:
[1] = test system: Saccharomyces cerevisiae; assay: Antifungal activity (optical density), Saccharomyces cerevisiae; assay type: cell-based
Protocol: The compounds were tested for their antifungal and nematicidal properties against the fungi Candida albicans and Saccharomyces cerevisiae, and against the nematode Steinernema feltiae.
Fungal cell densities were determined by measuring the optical density (OD) at 570 nm at 0 h (first measurement immediately after incubation), 4 h, and 24 h after incubation at 37 °C; and using a Universal Microplate Reader, EL800, Biotech Instruments, Inc. Highland Park, Winooski, VT, USA. Compounds were dissolved in 1% DMSO and were tested at final concentrations of 50, 100, 150, and 200 µM. Nutrient Sabouraud Dextrose (SD), and Yeast Peptone Dextrose (YPD) were used as media for C. albicans, and S. cerevisiae, respectively. Ketoconazole was used as the positive control for C. albicans and S. cerevisiae. The growth culture with medium for each organism was used as the negative control. The Solvent 1% DMSO stock was used as a solvent control. All experiments were carried out in triplicate and on three different occasions (n = 9).
For the three organisms considered (C. albicans, S. cerevisiae and S. feltiae), the inhibitory concentration 50% (IC50) is defined as the concentration that inhibits the viability of the respective organism to a 50% of the viability determined for the negative control.

[2] = test system: Escherichia coli AG100 A; assay: MIC determination (CLSI), E. coli AG100 A; assay type: cell-based; conditions: MIC class
Protocol: The effects exerted by different concentrations of the compounds on bacterial growth in Staphylococcus aureus 25923 ATCC, Staphylococcus aureus multidrug resistant 272123 clinical isolate (MRSA), Escherichia coli AG100 or Escherichia coli AG100 A were tested in 96-well plates. The MIC of selenocompounds was determined according to Clinical and Laboratory Standard Institute (CLSI) guidelines. The solvent used (DMSO) had no antibacterial effect. Alternatively, the MICs of oxacillin of the compounds in MRSA HEMSA 5 were determined by a broth microdilution method in cation-adjusted Mueller-Hinton Broth (MHB II) according to the recommendations of the CLSI. Results were recorded after a 20- or 24-hour incubation at 37°C.

[3] = test system: Colo 205 doxorubicin-sensitive; assay: Cytotoxicity assay (MTT) in Colo 205 cells; assay type: cell-based, human; conditions: for IC50: Homo sapiens, COLO 205, 24 h, read-out: Colo 205 Cytotoxicity; for SI (MRC-5/Colo205): quotient of IC50 in MRC-5 and IC50 in Colo-205
Protocol: Cytotoxicity assays in human colonic adenocarcinoma cell lines Colo 205 doxorubicin-sensitive (ATCC-CCL-222) and Colo 320/MDR-LRP multidrug resistant overexpressing ABCB1 (MDR1)-LRP (ATCC-CCL-220.1) were performed following the procedure described by Gajdács et al, 2017, Bioorg Med Chem Lett. 27(4): 797-802. The effects of increasing concentrations of selenium compounds on cell growth were tested in 96-well flat-bottomed microtiter plates. The selectivity of the action towards cancer cells was assessed through the evaluation of cytotoxic activity in a non-tumoral cell line, the MRC-5 human embryonal lung fibroblast cell lines (ATCC CCL-171), as described in Gajdács et al, 2017, Bioorg Med Chem Lett. 27(4): 797-802.
All cell lines were purchased from LGC Promochem, Teddington, UK. The colonic cells were cultured in RPMI 1640 medium supplemented with 10% heat-inactivated fetal bovine serum, 2 mM L-glutamine, 1 mM Na-pyruvate and 100 mM Hepes. The cell lines were incubated at 37°C, in a 5% CO2, 95% air atmosphere. The semi-adherent human colon cancer cells were detached with Trypsin-Versene (EDTA) solution for 5 min at 37°C. Alternatively, MRC-5 cells was cultured in Eagle's Minimal Essential Medium (EMEM, containing 4.5 g/L glucose) supplemented with a non-essential amino acid mixture, a selection of vitamins and 10% heat-inactivated fetal bovine serum. The cell lines were incubated at 37°C, in a 5% CO2, 95% air atmosphere.
The compounds were diluted in a volume of 100 µL of medium. The two-fold serial dilutions of selenocompounds were prepared in 100 µL of RPMI 1640, horizontally. The semi-adherent colonic adenocarcinoma cells were treated with Trypsin-Versene (EDTA) solution. They were adjusted to a density of 2×10^4 cells in 100 µL of RPMI 1640 medium, and were added to each well, with the exception of the medium control wells. The final volume of the wells containing selenocompounds and cells was 200 µL.
The culture plates were incubated at 37°C for 24 h; at the end of the incubation period, 20 µL of MTT (thiazolyl blue tetrazolium bromide, Sigma) solution (from a stock solution of 5 mg/mL) were added to each well. After incubation at 37°C for 4 h, 100 µL of sodium dodecyl sulfate (SDS) (Sigma) solution (10% in 0.01 M HCI) were added to each well and the plates were further incubated at 37°C overnight. Cell growth was determined by measuring the optical density (OD) at 540/630 nm with Multiscan EX ELISA reader (Thermo Labsystems, Cheshire, WA, USA). Inhibition of the cell growth was determined according to the formula below: […] = 100−[(OD sample−OD medium control)/(OD cell control−OD medium control)] × 100 [formula]
Results are expressed in terms of IC50, defined as the inhibitory dose that reduces the growth of the cells exposed to the tested compounds by 50%. Regarding the selectivity, the selectivity indexes (SI) were calculate, being SI the quotient of the IC50 in non-tumoral cells (MRC-5) and the respective cancer cell (Colo-205 or Colo-320). Compound is considered moderately selective when SI < 6 and ≥ 3; and strongly selective when SI ≥ 6.

[4] = read-out: Antifungal activity Saccharomyces cerevisiae, IC50 class, tested at 50, 100, 150 and 200 µM, OD 570 nm, 37 °C, read-out: Antifungal activity Streptomyces cerevisiae

| SMILES | IC50 [1, 4] [µM] | Antibacterial activity Against E. coli AG100 A [2] | IC50 [3] [µM] | SI (MRC-5/Colo205) [3] | IC50 ([1]; read-out: Antifungal activity Saccharomyces cerevisiae) [µM] |
| --- | --- | --- | --- | --- | --- |
| N#CC[Se]C(=O)c1ccc(C(=O)[Se]CC#N)cc1 [Compound 18, Se,Se-bis-(cyanomethyl) benzene-1,4-bis-(carboselenoate)] | > 100 | ** (Moderate antibacterial compounds: 10 µM < MIC ≤ 50 µM) | 1 to 10 | *** (Strongly selective compounds: SI ≥ 6) |  |
| N#CC[Se]C(=O)c1cccc(C(=O)[Se]CC#N)c1 [Compound 19, Se,Se-bis-(cyanomethyl)benzene-1,3-bis-(carboselenoate)] |  | NA (Not antibacterial compounds: MIC ≥ 100 µM) | 1 to 10 | *** (Strongly selective compounds: SI ≥ 6) | 10 to 50 |
| N#CC[Se]C(=O)c1cc(C(=O)[Se]CC#N)cc(C(=O)[Se]CC#N)c1 [Compound 20, Se,Se,Se-tris-(cyanomethyl) benzene-1,3,5-tris-(carboxyselenoate)] | 10 to 50 | NA (Not antibacterial compounds: MIC ≥ 100 µM) | < 1 | *** (Strongly selective compounds: SI ≥ 6) |  |
| CC(=O)C[Se]C(=O)c1ccc(C(=O)[Se]CC(C)=O)cc1 [Compound 22, Se,Se-bis-(2-oxopropyl) benzene-1,4-bis-(carboselenoate)] | 50 to 100 | ** (Moderate antibacterial compounds: 10 µM < MIC ≤ 50 µM) | < 1 | * (Slightly selective compounds: 1 ≤ SI < 3) |  |
| CC(=O)C[Se]C(=O)c1cccc(C(=O)[Se]CC(C)=O)c1 [Compound 23, Se,Se-bis-(2-oxopropyl) benzene-1,3-bis-(carboselenoate)] | > 100 | ** (Moderate antibacterial compounds: 10 µM < MIC ≤ 50 µM) | < 1 | * (Slightly selective compounds: 1 ≤ SI < 3) |  |
| CC(=O)C[Se]C(=O)c1cc(C(=O)[Se]CC(C)=O)cc(C(=O)[Se]CC(C)=O)c1 [Compound 24, Se,Se,Se-tris-(2-oxopropyl) benzene-1,3,5-tris-(carboxyselenoate)] | > 100 | ** (Moderate antibacterial compounds: 10 µM < MIC ≤ 50 µM) | < 1 | * (Slightly selective compounds: 1 ≤ SI < 3) |  |
